# Entries after “also recorded” stand apart in the source; their conditions may differ.
# Key:
# [1] = tested on: neonatal rat ventricular myocytes (NRVMs) expressing JUP^2157del2; settings: NRVMs expressing mutant plakoglobin, previous reports; cited from earlier work
# [2] = tested on: models of ACM; settings: multiple in vitro and in vivo models, human iPSC-cardiac myocytes; cited from earlier work
# [3] = tested on: ACM mice; assay: Arrhythmias in ACM mice treated with SB216763 (previous unpublished observations); type: in vivo
smiles,measurement,setting,value
Cn1cc(C2=C(c3ccc(Cl)cc3Cl)C(=O)NC2=O)c2ccccc21 [SB216763],"in vitro ACM features (protein redistribution, apoptosis, cytokines)",[1],blocked; also recorded: normalized
same,full ACM disease phenotype,[2],prevent and/or reverse
same,time to return of arrhythmias after cessation of treatment,[3]; ACM mice,≤ 48 h
same,time to cessation of arrhythmias,[3]; ACM mice under treatment,≤ 24 h

# From US20210161868A1, “ANTI-INFLAMMATORY THERAPY IN ARRHYTHMOGENIC CARDIOMYOPATHY (ACM)” (Beth Israel Deaconess Medical Center, Inc., priority 2018, published 2021)
